According to ChEMBL document CHEMBL1121604, “Cerebrovasodilatation through selective inhibition of the enzyme carbonic anhydrase. 2. Imidazo[2,1-b]thiadiazole and imidazo[2,1-b]thiazolesulfonamides” (J Med Chem, 1980):

Assays:
[1] = pKa of the compound was determined; format: physicochemical
Mus musculus [2] = test: Protective dose against maximal electroshock in mice after peroral administration; format: functional; details: po
Mus musculus [3] = organism: Mus musculus; test: Anticonvulsant potency in mice relative to compound UK-12130 (ED50 of compound 24/compound); format: functional
[4] = Partition coefficient (logP); format: physicochemical; details: octanol/water

| Compound | pKa [1] | ED50 (Mus musculus [2]) [mg/kg] | Potency ratio (Mus musculus [3]) | logP [4] |
| --- | --- | --- | --- | --- |
| NS(=O)(=O)c1nn2cc(-c3ccccc3)nc2s1 | 7.12 | 16 | 0.6 | – |
| NS(=O)(=O)c1nn2c(-c3ccccc3)cnc2s1 | – | > 16 | 0.4 | – |
| CC(C)(C)c1cn2nc(S(N)(=O)=O)sc2n1 | 6.94 | 2.6 | 3.2 | – |
| COc1ccc(-c2cn3nc(S(N)(=O)=O)sc3n2)cc1 | – | > 16 | <0.6 | – |
| CC(=O)Nc1ccc(-c2cn3nc(S(N)(=O)=O)sc3n2)cc1 | – | > 16 | <0.4 | – |
| NS(=O)(=O)c1nn2cc(-c3ccc(O)cc3)nc2s1 | 8.16 | 10 | 0.9 | – |
| NS(=O)(=O)c1nn2cc(-c3ccccc3O)nc2s1 | – | > 16 | <0.6 | – |
| CC(C)(C)c1cn2cc(S(N)(=O)=O)sc2n1 | 8.37 | 7 | 1.7 | – |
| Cc1ccc(-c2cn3nc(S(N)(=O)=O)sc3n2)cc1 | – | > 16 | <0.6 | – |
| NS(=O)(=O)c1nn2cc(-c3cccs3)nc2s1 | – | > 16 | <0.4 | – |
| Br.Cc1cn2nc(S(N)(=O)=O)sc2n1 | – | 5 | 2.2 | – |
| Br.CCc1nc2sc(S(N)(=O)=O)nn2c1C | – | 8 | 1 | – |
| Br.NS(=O)(=O)c1cn2ccnc2s1 | – | 16 | 0.7 | – |
| Br.NS(=O)(=O)C1=NN2C(=NC3CCCCC32)S1 (configuration not stated) | – | > 16 | <0.5 | – |
| Br.NS(=O)(=O)c1nn2ccnc2s1 | – | 8 | 1.4 | – |
| Br.CCc1cn2nc(S(N)(=O)=O)sc2n1 | – | 5 | 1.6 | – |
| Br.Cc1cn2cc(S(N)(=O)=O)sc2n1 | – | 6 | 1.3 | – |
| Br.Cc1nc2sc(S(N)(=O)=O)nn2c1C | – | 12 | 0.6 | – |
| Br.NS(=O)(=O)c1nn2cc(C34CC5CC(CC(C5)C3)C4)nc2s1 | – | 6 | 1 | – |
| CC(=O)Nc1nnc(S(N)(=O)=O)s1 [ACETAZOLAMIDE] | – | 36 | – | – |
| CC(=O)/N=c1/sc(S(N)(=O)=O)nn1C [METHAZOLAMIDE] | 7.2 | 12 | 0.75 | 0.2 |
